The text below walks through data of US7718676B2, “2-aminoaryloxazole compounds as tyrosine kinase inhibitors” (AB Science, priority 2003, dated 2010).

As a reminder, the melting point is the temperature of the solid-liquid transition.

On to `Cc1ccc(NC(=O)c2cccc(N(C)C)c2)cc1Nc1ncc(-c2cccnc2)o1` [Compound 010, 3-Dimethylamino-N-[4-methyl-3-(5-pyridin-3-yl-oxazol-2-ylamino)-phenyl]-benzamide], for which the melting point was found to be 228 °C.
The result for `Cc1ccc(C(=O)Nc2ccc(C#N)cc2)cc1Nc1ncc(-c2cccnc2)o1` [Compound 058, N-(4-Cyano-phenyl)-4-methyl-3-(5-pyridin-3-yl-oxazol-2-ylamino)-benzamide] reads 203 °C.
